# Laboratory results from patent US20100210602A1, “PhoU (PerF), A P[…] INVOLVED IN [sequence] FORMATION AND TOLERANCE TO MULTIPLE ANTIBIOTICS AND [sequence] AS A DRUG TARGET FOR [sequence] BACTERIA” (priority 2006, published 2010).
# Assays:
# wild type strain W3110 = experiment: microbe, parasite or virus in culture; type: cell-based, E. coli; conditions: Escherichia coli, W3110, 16 h
# PhoU mutant (JHU-313) = experiment: MIC/MBC by serial two-fold dilutions in LB broth; type: cell-based, E. coli; conditions: Escherichia coli, 16 h at 37° C.
# JHU-313 containing pPhoU [1] = experiment: MIC/MBC by serial two-fold dilutions in LB broth; type: cell-based, E. coli; conditions: Escherichia coli, 16 h at 37° C.
# [2] = tested on: JHU-313 containing pVector; experiment: MIC/MBC by serial two-fold dilutions in LB broth; type: cell-based, E. coli; conditions: Escherichia coli, 16 h at 37° C.
# W3110 [3] = experiment: microbe, parasite or virus in culture; conditions: Escherichia coli, read-out: zone inhibition
# JHU-313 = experiment: Kirby-Bauer paper disc assay, zone inhibition
# JHU-313 containing pPhoU [4] = experiment: Kirby-Bauer paper disc assay, zone inhibition
# [5] = tested on: JHU-313 containing pVector; experiment: Kirby-Bauer paper disc assay, zone inhibition
# PhoU = target: T1, PhoU (Escherichia coli, UniProt P0A9K7); experiment: PhoU phosphatase substrate specificity; type: biochemical, E. coli; conditions: pH5, pH7 and pH8
# T1 construct: His; made in house
# Experimental: Different substrates for the PhoU phosphatase activity were tested. […] For PhoU, the substrates acetyl-P, carbamoyl-P, imido-di phosphate (imido-di-P), r-nitrophenyl phosphate (rNPP), β-Nicotinamide adenine dinucleotide phosphate (NADP), Glucose-1,6-bisphosphate (Glucose-1,6-bisP) were tested at pH5, pH7, and pH8 condition, as potential PhoU phosphatase activity.
# W3110 [6] = tested on: W3110
# [7] = Escherichia coli, read-out: zone inhibition
# T1 sequence (P0A9K7 whole entry): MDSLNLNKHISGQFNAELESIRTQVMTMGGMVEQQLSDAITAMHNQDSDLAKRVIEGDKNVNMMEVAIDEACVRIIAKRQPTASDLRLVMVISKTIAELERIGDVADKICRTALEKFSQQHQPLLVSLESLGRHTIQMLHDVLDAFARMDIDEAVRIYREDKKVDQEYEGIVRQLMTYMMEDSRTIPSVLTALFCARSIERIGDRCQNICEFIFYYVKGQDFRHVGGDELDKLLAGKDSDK
molecule,measurement,setting,value
"COc1cc(Cc2cnc(N)nc2N)cc(OC)c1OC [Trimethoprim, trimethoprim]",MBC,wild type strain W3110,8 µg/mL
same,MIC,wild type strain W3110,2 µg/mL
same,MBC,PhoU mutant (JHU-313); read-out: MBC,1 µg/mL
same,MIC,PhoU mutant (JHU-313); read-out: MIC,0.25 µg/mL
same,MBC,JHU-313 containing pPhoU [1]; read-out: MBC,4 µg/mL
same,MIC,JHU-313 containing pPhoU [1]; read-out: MIC,2 µg/mL
same,MBC,[2]; read-out: MBC,1 µg/mL
same,MIC,[2]; read-out: MIC,0.5 µg/mL
same,zone of inhibition at 0.5 µg/mL,W3110 [3],24 mm
same,zone of inhibition at 1 µg/mL,W3110 [3],26 mm
same,zone of inhibition at 2 µg/mL,W3110 [3],30 mm
same,zone of inhibition at 0.5 µg/mL,JHU-313; [7],31 mm
same,zone of inhibition at 1 µg/mL,JHU-313; [7],38 mm
same,zone of inhibition at 2 µg/mL,JHU-313; [7],42 mm
same,zone of inhibition at 0.5 µg/mL,JHU-313 containing pPhoU [4]; [7],32 mm
same,zone of inhibition at 1 µg/mL,JHU-313 containing pPhoU [4]; [7],33 mm
same,zone of inhibition at 2 µg/mL,JHU-313 containing pPhoU [4]; [7],36 mm
same,zone of inhibition at 0.5 µg/mL,[5]; [7],36 mm
same,zone of inhibition at 1 µg/mL,[5]; [7],40 mm
same,zone of inhibition at 2 µg/mL,[5]; [7],44 mm
CN(C)[C@@H]1C(O)=C(C(N)=O)C(=O)[C@@]2(O)C(O)=C3C(=O)c4c(O)cccc4[C@@](C)(O)[C@H]3C[C@@H]12 [Tetracycline],zone of inhibition at 12.5 µg/mL,W3110 [3],22 mm
same,zone of inhibition at 25 µg/mL,W3110 [3],23 mm
same,zone of inhibition at 50 µg/mL,W3110 [3],23 mm
same,zone of inhibition at 12.5 µg/mL,JHU-313; [7],26 mm
same,zone of inhibition at 25 µg/mL,JHU-313; [7],32 mm
same,zone of inhibition at 50 µg/mL,JHU-313; [7],32 mm
same,zone of inhibition at 12.5 µg/mL,JHU-313 containing pPhoU [4]; [7],30 mm
same,zone of inhibition at 25 µg/mL,JHU-313 containing pPhoU [4]; [7],32 mm
same,zone of inhibition at 50 µg/mL,JHU-313 containing pPhoU [4]; [7],32 mm
same,zone of inhibition at 12.5 µg/mL,[5]; [7],34 mm
same,zone of inhibition at 25 µg/mL,[5]; [7],34 mm
same,zone of inhibition at 50 µg/mL,[5]; [7],34 mm
"NC(=O)OP(=O)(O)O [carbamoyl-P, carbamoyl phosphate]",rank as PhoU phosphatase substrate,PhoU,"acetyl-P>rNPP>carbamoyl-P>Glucose-1,6-bisP>NADP"
β-Nicotinamide adenine dinucleotide phosphate [NADP],rank as PhoU phosphatase substrate,PhoU,"acetyl-P>rNPP>carbamoyl-P>Glucose-1,6-bisP>NADP"
"OO [Hydrogen peroxide, hydrogen peroxide]",zone inhibition,W3110 [6],30 mm
same,zone inhibition,JHU-313; peroxide (30%),37 mm
same,zone inhibition,JHU-313 containing pPhoU [4]; peroxide (30%),39 mm
same,zone inhibition,[5]; peroxide (30%),46 mm
